17 compounds from US12625141B2, “Fluorescent dye, preparation method and uses thereof” (FLUORESCENCE DIAGNOSIS (SHANGHAI) BIOTECH COMPANY LTD., priority 2019, dated 2026) can be followed below.

SMILES strings stand for the structures.

System in one data set: not listed separately
The experiment in a line: Fluorescence emission in glycerol versus methanol (viscosity response). In kind it is physicochemical. The conditions noted are these: 1×10^-5 M in glycerol and methanol, maximum excitation wavelength of each dye.
`CN(CCO)c1ccc2cc(/C=C(\C#N)c3ccc(C#N)cc3)sc2c1` [III-18]: the “Glycerol/methanol fluorescence intensity ratio” value is listed as 978.

Regarding `CN(C)c1cc2sc(/C=C(\C#N)c3ccc(C#N)cc3)cc2s1` [III-19], the “Glycerol/methanol fluorescence intensity ratio” value was 991.

In the case of `CCN(CC)c1cc2sc(/C=C(\C#N)c3ccc(C#N)cc3)cc2s1` [III-20], the “Glycerol/methanol fluorescence intensity ratio” value came to 836.

Take `CN(CCO)c1cc2sc(/C=C(\C#N)c3ccc(C#N)cc3)cc2s1` [III-21]: the “Glycerol/methanol fluorescence intensity ratio” value is 544.

Take `CN(C)c1ccc(-c2ccc(/C=C(\C#N)c3ccc(C#N)cc3)cc2)cc1` [III-22]: the “Glycerol/methanol fluorescence intensity ratio” value came to 989.

Consider `CN(C)c1ccc(-c2ccc(/C=C(\C#N)c3ccc(C#N)cc3)s2)cc1` [III-23], for which the “Glycerol/methanol fluorescence intensity ratio” value stood at 687.

In the case of `N#C/C(=C\c1ccc(-c2ccc(N3CCOCCOCCOCCOCC3)cc2)s1)c1ccc(C#N)cc1` [III-24], the “Glycerol/methanol fluorescence intensity ratio” value was found to be 596.

As to `CCN(CC)c1ccc(-c2ccc(/C=C(\C#N)c3ccc(C#N)cc3)s2)s1` [III-25], the “Glycerol/methanol fluorescence intensity ratio” value stood at 783.

`CN(C)c1ccc(-c2ccc(/C=C(\C#N)c3ccc(C(=O)O)cc3)s2)s1` [III-26]: the “Glycerol/methanol fluorescence intensity ratio” value amounted to 368.

With `CN(CCO)c1cc2sc3cc(/C=C(\C#N)c4ccc(C#N)cc4)sc3c2s1` [III-28], the “Glycerol/methanol fluorescence intensity ratio” value is recorded as 559.

Take `CCOC(=O)c1ccc(/C(C#N)=C/c2cc3sc4cc(N(C)C)sc4c3s2)cc1` [III-29]: the “Glycerol/methanol fluorescence intensity ratio” value is recorded as 684.

Take `CN(C)c1cc2sc3cc(/C=C(\C#N)c4ccc([S+](C)[O-])cc4)sc3c2s1` (stereo not shown) [III-30]: the “Glycerol/methanol fluorescence intensity ratio” value is 756.

With `CN(CCO)c1cc2c(s1)-c1sc(/C=C(\C#N)c3ccc(S(N)(=O)=O)cc3)cc1[Si]2(C)C` [III-32], the “Glycerol/methanol fluorescence intensity ratio” value is listed as 817.

With `CN(CCO)c1cc2c(s1)-c1sc(/C=C(\C#N)c3ccc(C#N)cc3)cc1[Si]2(C)C` [III-33], the “Glycerol/methanol fluorescence intensity ratio” value is 691.

For `CN(CCO)c1cc2c(s1)-c1sc(/C=C(\C#N)c3ccc(C(N)=O)cc3)cc1C2(C)C` [III-34], the “Glycerol/methanol fluorescence intensity ratio” value is on record as 489.

On to `COCCOCCOCCOCCOCCN(C)c1cc2c(s1)-c1sc(/C=C(\C#N)c3ccc(C#N)cc3)cc1C2(C)C` [III-35], for which the “Glycerol/methanol fluorescence intensity ratio” value was determined as 710.

The same data set, now with this note: 1×10^-5 M, maximum excitation wavelength of each fluorescent dye.
Turning to `CN(CCO)c1ccc2cc(/C=C(\C#N)c3ccc(C#N)cc3)sc2c1` [III-18], the “Emission (nm)” value is 595 nm.

In the case of `CN(C)c1cc2sc(/C=C(\C#N)c3ccc(C#N)cc3)cc2s1` [III-19], the “Emission (nm)” value came out at 620 nm.

Turning to `CCN(CC)c1cc2sc(/C=C(\C#N)c3ccc(C#N)cc3)cc2s1` [III-20], the “Emission (nm)” value turned out to be 620 nm.

For the compound `CN(CCO)c1cc2sc(/C=C(\C#N)c3ccc(C#N)cc3)cc2s1` [III-21], the “Emission (nm)” value is recorded as 620 nm.

For the compound `CN(C)c1ccc(-c2ccc(/C=C(\C#N)c3ccc(C#N)cc3)cc2)cc1` [III-22], the “Emission (nm)” value was determined as 650 nm.

Regarding `CN(C)c1ccc(-c2ccc(/C=C(\C#N)c3ccc(C#N)cc3)s2)cc1` [III-23], the “Emission (nm)” value was 661 nm.

As for `N#C/C(=C\c1ccc(-c2ccc(N3CCOCCOCCOCCOCC3)cc2)s1)c1ccc(C#N)cc1` [III-24], the “Emission (nm)” value is reported as 662 nm.

As for `CCN(CC)c1ccc(-c2ccc(/C=C(\C#N)c3ccc(C#N)cc3)s2)s1` [III-25], the “Emission (nm)” value is 678 nm.

With `CN(C)c1ccc(-c2ccc(/C=C(\C#N)c3ccc(C(=O)O)cc3)s2)s1` [III-26], the “Emission (nm)” value is recorded as 676 nm.

As for `CN(CCO)c1cc2sc3cc(/C=C(\C#N)c4ccc(C#N)cc4)sc3c2s1` [III-28], the “Emission (nm)” value was 662 nm.

Consider `CCOC(=O)c1ccc(/C(C#N)=C/c2cc3sc4cc(N(C)C)sc4c3s2)cc1` [III-29], for which the “Emission (nm)” value was 665 nm.

Consider `CN(C)c1cc2sc3cc(/C=C(\C#N)c4ccc([S+](C)[O-])cc4)sc3c2s1` (stereo not shown) [III-30], for which the “Emission (nm)” value is 660 nm.

In the case of `CN(CCO)c1cc2c(s1)-c1sc(/C=C(\C#N)c3ccc(S(N)(=O)=O)cc3)cc1[Si]2(C)C` [III-32], the “Emission (nm)” value is on record as 690 nm.

`CN(CCO)c1cc2c(s1)-c1sc(/C=C(\C#N)c3ccc(C#N)cc3)cc1[Si]2(C)C` [III-33]: the “Emission (nm)” value came to 705 nm.

Consider `CN(CCO)c1cc2c(s1)-c1sc(/C=C(\C#N)c3ccc(C(N)=O)cc3)cc1C2(C)C` [III-34], for which the “Emission (nm)” value worked out at 689 nm.

On to `COCCOCCOCCOCCOCCN(C)c1cc2c(s1)-c1sc(/C=C(\C#N)c3ccc(C#N)cc3)cc1C2(C)C` [III-35], for which the “Emission (nm)” value is on record as 690 nm.

System in a further data set: not listed separately
The experiment in a line: Fluorescence emission at different viscosity conditions in diethanol-glycerol mixed solution. Format: physicochemical. Particulars: 1×10^−5 M, excitation at 480 nm.
In the case of `CN(CCO)c1cc2sc3cc(/C=C(\C#N)c4ccc(C#N)cc4)sc3c2s1` [III-28], the “Sensitivity of fluorescence intensity to viscosity” value is “sensitive to viscosity”.

With `CN(CCO)c1cc2c(s1)-c1sc(/C=C(\C#N)c3ccc(C(N)=O)cc3)cc1C2(C)C` [III-34], the “Sensitivity of fluorescence intensity to viscosity” value is given as “sensitive to viscosity”.

In a further data set the test system is F30-8Pepper-5 RNA aptamer. The data set is described as follows: Binding to RNA aptamer, optical properties after binding. Particulars: after binding to RNA aptamer.
Take `CN(CCO)c1ccc2cc(/C=C(\C#N)c3ccc(C#N)cc3)sc2c1` [III-18]: the Em/nm was 599 nm, the Ex/nm is reported as 515 nm and the “ε” value turned out to be 54400 M⁻¹ cm⁻¹.

For the compound `CN(CCO)c1cc2sc(/C=C(\C#N)c3ccc(C#N)cc3)cc2s1` [III-21], the Em/nm came to 620 nm, the Ex/nm came to 577 nm and the “ε” value was found to be 10000 M⁻¹ cm⁻¹.

The data set is the same for the next values; noted with them: after binding to RNA aptamer; relative method with Rhodamine 6G as the standard.
Regarding `CN(CCO)c1ccc2cc(/C=C(\C#N)c3ccc(C#N)cc3)sc2c1` [III-18], the “QY (−)” value came to 0.43.

As for `CN(CCO)c1cc2sc(/C=C(\C#N)c3ccc(C#N)cc3)cc2s1` [III-21], the “QY (−)” value stood at 0.58.

Still in this data set, the particulars now being: binding to RNA aptamer.
On to `CN(CCO)c1ccc2cc(/C=C(\C#N)c3ccc(C#N)cc3)sc2c1` [III-18], for which binding was characterised by a dissociation constant (Kd) of 18 nM. In other words, the double-digit nanomolar range.

As for `CN(CCO)c1cc2sc(/C=C(\C#N)c3ccc(C#N)cc3)cc2s1` [III-21], the Kd (usually a measure of binding affinity in units of concentration) was found to be 6.1 nM.

Still in this data set, the particulars now being: fluorescence activation after binding to RNA aptamer.
`CN(CCO)c1ccc2cc(/C=C(\C#N)c3ccc(C#N)cc3)sc2c1` [III-18]: the “Activation Multiple” value is listed as 708.

In the case of `CN(CCO)c1cc2sc(/C=C(\C#N)c3ccc(C#N)cc3)cc2s1` [III-21], the “Activation Multiple” value is given as 12600.

The test system of a further data set is RNA aptamer in cells. The experiment in a line: Labeling intracellular RNA aptamers in cells. Format: cell-based. The conditions noted are these: cells not expressing the RNA aptamer (FIG. 17B).
`CN(CCO)c1ccc2cc(/C=C(\C#N)c3ccc(C#N)cc3)sc2c1` [III-18]: the “Fluorescence of cells not expressing the RNA aptamer” value was “no fluorescence”.

For `CN(CCO)c1cc2sc(/C=C(\C#N)c3ccc(C#N)cc3)cc2s1` [III-21], the “Fluorescence of cells not expressing the RNA aptamer” value is reported as “no fluorescence”.

Still in this data set, the particulars now being: cells transcribing the RNA aptamer (FIG. 17A).
Take `CN(CCO)c1ccc2cc(/C=C(\C#N)c3ccc(C#N)cc3)sc2c1` [III-18]: the “Fluorescence of cells transcribing the RNA aptamer” value is “bright fluorescence”.

With `CN(CCO)c1cc2sc(/C=C(\C#N)c3ccc(C#N)cc3)cc2s1` [III-21], the “Fluorescence of cells transcribing the RNA aptamer” value is on record as “bright fluorescence”.

A further data set has as its system ACTB-4Pepper RNA aptamer (skeleton protein mRNA) in 293T/17 cell line. The experiment in a line: Labeling intracellular mRNA, flow detection. In kind it is cell-based. The conditions noted are these: 0.2 μM in PBS, incubated for 5 minutes. From the text: FIGS. 18A and 18B are the application of molecular rotors III-3, III-43 in labeling intracellular mRNA.
Turning to `CN(CCO)c1ccc(/C=C(\C#N)c2nc3ccccc3s2)cc1` [III-43, reference compound], the “Background fluorescence in cells” value is given as “higher than III-3” and the “Labeling of skeleton protein mRNA in cell lines expressing target RNA” value is reported as “unclear whether ACTB was expressed”.
